Reference: publication PMC6009894, “Molecular modelling insights into a physiologically favourable approach to eicosanoid biosynthesis inhibition through novel thieno[2,3-b]pyridine derivatives” (Journal of Enzyme Inhibition and Medicinal Chemistry, 2018)
Where “and” joins values, the source holds several entries; their conditions need not be identical. Equal entries are not always repeated.

What was measured:
[1] = test system: carrageenan-induced rat paw oedema; experiment: carrageenan-induced rat paw oedema assay; format: in vivo, Sprague–Dawley rats; settings: for Inhibition of acute inflammation % inh / Swel (mean difference in rat paw volume between right and left paw): dose equivalent to 70 mg kg-1 ibuprofen; for Swel (mean difference in rat paw volume between right and left paw): DMSO
Experimental: According to a priori test results, experiments were conducted on young adult male Sprague–Dawley rats (5 rats per group), weighing 140–170 g. The animals were housed at cages in a temperature controlled (25 ± 1 °C) environment and were fed ad libitum with standard laboratory chow and allowed free access to water. […] The animal protocol is in accordance with the Animal Ethical Care regulations in the Faculty of Pharmacy, Helwan University.
Compounds (equimolar to the reference drug) were dissolved in DMSO and administrated subcutaneously. One hour later, paw oedema was induced by subplantar injection of 0.1 ml of 1% carrageenan (Sigma-Aldrich, St. Louis, MO) into the right hind paw. Paw volume was measured using a water plethysmometer (Basile, Comerio, Italy). The difference between the right and left paw volume was measured at 1, 2, 3, and 4 h after induction of inflammation.
The control group (five rats per group) received DMSO subcutaneously and carrageenan in the subplantar region. Results were expressed as percentage inhibition of inflammation.

Row | Structure (SMILES) | Inhibition of acute inflammation % inh ([1]; 1 h) | Swel (mean difference in rat paw volume between right and left paw) ([1]; 1 h after carrageenan) | Inhibition of acute inflammation % inh ([1]; 2 h) | Swel (mean difference in rat paw volume between right and left paw) ([1]; 2 h after carrageenan) | Inhibition of acute inflammation % inh ([1]; 3 h) | Swel (mean difference in rat paw volume between right and left paw) ([1]; 3 h after carrageenan) | Inhibition of acute inflammation % inh ([1]; 4 h) | Swel (mean difference in rat paw volume between right and left paw) ([1]; 4 h after carrageenan) | melting point | inflammation reduction % (4h) ([1]; rat paw oedema, 4 h time interval, subcutaneous, equimolar to ibuprofen 70 mg kg-1)
1 | CC1=CC(C)=C(C#N)C2SC(=Cc3ccccc3)C(=O)N12 (racemic) [Compound 2a] | 0% | 0.457 | 0% | 0.595 | 16.605% | 0.453 | 21.95% | 0.491 | 105 to 107 °C | 
2 | CC1=CC(C)=C(C#N)C2SCN(c3ccccc3)CN12 (racemic) [Compound 4a, (±)3-Aryl-2,3,4,9a-tetrahydro-6,8-dimethylpyrido[2,1-b][1,3,5]thiadiazine-9-carbonitrile] | 0% | 0.394 | 0% | 0.407 | 38.174% | 0.336 | 43.38% | 0.356 | 180 to 182 °C | 
3 | CC1=CC(C)=C(C#N)C2SCN(Cc3ccccc3)CN12 (racemic) [Compound 4c] | 0% | 0.45 | 4.78% | 0.22 | 7.39% | 0.213 | 35.08% | 0.409 | 125 to 127 °C | 
4 | Cc1cc(C)c(C#N)c(=S)[nH]1 [Compound 1, 1,2-Dihydro-4,6-dimethyl-2-thioxopyridine-3-carbonitrile] | 0% | 0.503 | 0% | 0.353 | 38.725% | 0.33 | 43.91% | 0.353 |  | 
5 | CSc1nc(C)cc(C)c1C#N [Compound 3a, S-Methyl-4,6-dimethyl-2-thiopyridine-3-carbonitrile] | 0% | 0.382 | 0% | 0.363 | 12.438% | 0.476 | 43.7% | 0.354 |  | 
6 | CCOC(=O)CSc1nc(C)cc(C)c1C#N [Compound 3b, ethyl 2-(3-cyano-4,6-dimethylpyridin-2-ylthio)acetate] |  |  |  |  |  |  |  |  | 93 °C | 
7 | CCOC(=O)c1sc2nc(C)cc(C)c2c1N [Compound 5, Ethyl-3-amino-4,6-dimethylthieno[2,3-b]pyridine-2-carboxylate] | 0% | 0.393 | 0% | 0.46 | 28.921% | 0.386 | 46.03% | 0.34 |  | 
8 | Cc1cc(C)c2c(N)c(C(=O)NN)sc2n1 [Compound 6, 3-Amino-4,6-dimethylthieno[2,3-b]pyridine-2-carbazide] | 0% | 0.410 | 0% | 0.486 | 38.84% | 0.332 | 58.67% | 0.26 |  | 
9 | COc1ccc(C=NNC(=O)c2sc3nc(C)cc(C)c3c2N)cc1 [Compound 7c, 3-Amino-4,6-dimethyl-thieno [2,3-b] pyridine-2-carboxylic acid (4-methoxy-benzylidene)-hyrazide] | 11.59% | 0.203 | 25.64% | 0.193 | 58.3% | 0.226 | 63.49% | 0.23 |  | 
10 | Cc1cc(C)c2c(n1)sc1c(=O)n(N=Cc3ccccc3)nnc12 [Compound 8a, 7,9-Dimethyl-3-[(phenylmethylene)amino]pyrido[3′,2′:4,5]thieno[3,2-d][1,2,3]triazin-4(3H)-one] | 0% | 0.256 | 14.1% | 0.223 | 30.75% | 0.376 | 53.96% | 0.29 | 300 to 302 °C | 
11 | Cc1cc(C)c2c(N)c(-n3nc(C)cc3C=C=O)sc2n1 [Compound 9b, 3-Amino-2-[carbonyl (3,5-dimethyl-pyrazol-1-yl)]-4,6-dimethylthieno[2,3-b] pyridine] |  |  |  |  |  |  |  |  | 150 to 152 °C | 
12 | CC(=O)N(C(C)=O)n1c(C)nc2c(sc3nc(C)cc(C)c32)c1=O [Compound 10b, 3-Diacetylamino-2,7,9-trimethylpyrido [3',2':4,5]thieno[3,2-d]pyrimidin-4(3H)-one] |  |  |  |  |  |  |  |  | 133 to 135 °C | 
13 | CC(C)Cc1ccc(C(C)C(=O)O)cc1 (stereo not drawn) [Ibuprofen, reference compound] | 6.08% |  | 45% |  | 60.66% |  | 69.52% |  |  | 69.5% and 69.52%
